Test results reported in PMC7897990, “TriTOX: A novel Trichomonas vaginalis assay platform for high-throughput screening of compound libraries” (International Journal for Parasitology: Drugs and Drug …, 2021).
Like-named read-outs stand apart in the source and are kept apart here.

Experiments:
[1] = test system: Trichomonas vaginalis G3 trophozoites
[2] = test system: nontumorigenic neonatal foreskin fibroblast (NFF) cell line
[3] = replicate 1, parasite screen at 1 µg/mL
[4] = replicate 2, parasite screen at 1 µg/mL
[5] = parasite screen at 1 µg/mL, replicate 1
[6] = parasite screen at 1 µg/mL, replicate 2
[7] = NFF_NS1 screen at 5 µg/mL, NFF cells
[8] = HTS single concentration, parasite screen 1 µg/mL, replicate 1
[9] = HTS single concentration, parasite screen 1 µg/mL, replicate 2
[10] = NFF_NS1 screen 5 µg/mL, single concentration
[11] = HTS replicate 1, parasite screen 1 µg/mL
[12] = HTS replicate 2, parasite screen 1 µg/mL
[13] = NFF fibroblasts, single concentration 5 µg/mL
[14] = HTS, parasite screen at 1 µg/mL, replicate 1
[15] = HTS, parasite screen at 1 µg/mL, replicate 2

## CC[C@H](C)[C@H]1O[C@]2(CC[C@@H]1C)C[C@@H]1C[C@@H](C/C=C(\C)[C@@H](O[C@H]3C[C@H](OC)[C@@H](O[C@H]4C[C@H](OC)[C@@H](O)[C@H](C)O4)[C@H](C)O3)[C@@H](C)/C=C/C=C3\CO[C@@H]4[C@H](O)C(C)C=C(C(=O)O1)[C@]34O)O2 (some centres unmarked) [BIA-I1581]
[1]; [3]
  T.vaginalis_%inb_Rep1: 13.44%
[1]; [4]
  T.vaginalis_%inb_Rep2: 13.34%
[2]; NFF cells, screen at 5 µg/mL
  NFF_Activity: I (otherwise these were reported as inactive (I))

## CCCCCCCCCCC[C@@H](C[C@@H]1OC(=O)[C@H]1CCCCCC)OC(=O)[C@H](CC(C)C)NC=O [BIA-T1320]
[1]; [5]
  T.vaginalis_%inb_Rep1: 10.91%
[1]; [6]
  T.vaginalis_%inb_Rep2: 19.44%
[2]; [7]
  NFF_Activity: I (otherwise these were reported as inactive (I))

## C[C@@H]1C[C@H]2O[C@@H]2/C=C\C=C\C(=O)Cc2c(Cl)c(O)cc(O)c2C(=O)O1 [BIA-R1148]
[1]; [5]
  T.vaginalis_%inb_Rep1: 12.83%
[1]; [6]
  T.vaginalis_%inb_Rep2: 10.33%
[2]; [7]
  NFF_Activity: A (active (A) compounds having >25% inhibitory activity)

## C=CC(C)(C)[C@@]12C[C@H]3C(=O)N/C(=C/c4c[nH]cn4)C(=O)N3[C@@H]1Nc1ccccc12 [BIA-R1083]
[1]; [5]
  T.vaginalis_%inb_Rep1: 13.69%
[1]; [6]
  T.vaginalis_%inb_Rep2: 4.87%
[2]; [7]
  NFF_Activity: A (active (A) compounds having >25% inhibitory activity)

## COc1cc(-c2ccc(O)cc2)c(OC)c(O)c1-c1ccc(O)cc1 [BIA-T1200]
[1]; [5]
  T.vaginalis_%inb_Rep1: 9.75%
[1]; [6]
  T.vaginalis_%inb_Rep2: 14.63%
[2]; [7]
  NFF_Activity: I (otherwise these were reported as inactive (I))

## CC[C@H](C)[C@@H]1NC(=O)C(C(C)=O)=C1O [BIA-T1277]
[1]; [5]
  T.vaginalis_%inb_Rep1: 8.60%
[1]; [6]
  T.vaginalis_%inb_Rep2: 14.81%
[2]; [7]
  NFF_Activity: I (otherwise these were reported as inactive (I))

## COc1c(-c2ccccc2)c2ccccc2[nH]c1=O [BIA-M1149]
[1]; [3]
  T.vaginalis_%inb_Rep1: 20.69%
[1]; [4]
  T.vaginalis_%inb_Rep2: 13.28%
[2]; NFF cells, screen at 5 µg/mL
  NFF_Activity: I (otherwise these were reported as inactive (I))

## O=C1CCCC2C3CC(CN12)C1CC(O)CCN1C3 (centres unmarked) [BIA-H1961]
[1]; [3]
  T.vaginalis_%inb_Rep1: 9.18%
[1]; [4]
  T.vaginalis_%inb_Rep2: 14.99%
[2]; NFF cells, screen at 5 µg/mL
  NFF_Activity: I (otherwise these were reported as inactive (I))

## CN(C)C1C(=O)C(C(N)=O)=C(O)C2(O)C(=O)CC(C3(C)OC(=O)c4c(O)ccc(Cl)c43)CC12 (centres unmarked) [BIA-I1656]
[1]; [3]
  T.vaginalis_%inb_Rep1: 15.87%
[1]; [4]
  T.vaginalis_%inb_Rep2: 12.89%
[2]; NFF cells, screen at 5 µg/mL
  NFF_Activity: I (otherwise these were reported as inactive (I))

## Cc1cc(O)c(C)c(O)c1C(=O)O [BIA-M1661]
[1]; [3]
  T.vaginalis_%inb_Rep1: 12.78%
[1]; [4]
  T.vaginalis_%inb_Rep2: 12.06%
[2]; NFF cells, screen at 5 µg/mL
  NFF_Activity: A (active (A) compounds having >25% inhibitory activity)

## O=C1c2c(O)cc(O)cc2OC1(O)Cc1ccc(O)c(O)c1 (centres unmarked) [BIA-A1767]
[1]; [8]
  T.vaginalis_%inb_Rep1: 15.13%
[1]; [9]
  T.vaginalis_%inb_Rep2: 38.61%
[2]; [10]
  NFF_Activity: I (otherwise these were reported as inactive (I))

## CO[C@H]1C[C@@H]2CC[C@@H](C)[C@@](O)(O2)C(=O)C(=O)N2CCCC[C@H]2C(=O)O[C@H]([C@H](C)C[C@@H]2CC[C@@H](OC(=O)C(C)(CO)CO)[C@H](OC)C2)CC(=O)[C@H](C)/C=C(\C)[C@@H](O)[C@@H](OC)C(=O)[C@H](C)C[C@H](C)/C=C/C=C/C=C/1C [BIA-T1386]
[1]; [5]
  T.vaginalis_%inb_Rep1: 7.60%
[1]; [6]
  T.vaginalis_%inb_Rep2: 9.14%
[2]; [7]
  NFF_Activity: I (otherwise these were reported as inactive (I))

## CC(=O)OC[C@]12CCC(C)=C[C@H]1O[C@@H]1[C@H](O)[C@@H](O)[C@@]2(C)[C@]12CO2 [BIA-A1982]
[1]; [8]
  T.vaginalis_%inb_Rep1: 9.02%
[1]; [9]
  T.vaginalis_%inb_Rep2: 12.13%
[2]; [10]
  NFF_Activity: A (active (A) compounds having >25% inhibitory activity)

## CO[C@H]1C[C@@H]2CC[C@@H](C)[C@@](O)(O2)C(=O)C(=O)N2CCCC[C@H]2C(=O)O[C@H]([C@H](C)C[C@@H]2CC[C@@H](O)[C@H](OC)C2)CC(=O)[C@H](C)/C=C(\C)[C@@H](O)[C@@H](OC)C(=O)[C@H](C)C[C@H](C)/C=C/C=C/C=C/1C [BIA-R1183]
[1]; [5]
  T.vaginalis_%inb_Rep1: 10.28%
[1]; [6]
  T.vaginalis_%inb_Rep2: 12.55%
[2]; [7]
  NFF_Activity: I (otherwise these were reported as inactive (I))

## C=CC(C)(C)C12CC3C(=O)Nc4ccccc4C(=O)N3C1Nc1ccccc12 (centres unmarked) [BIA-A1686]
[1]; [8]
  T.vaginalis_%inb_Rep1: 14.16%
[1]; [9]
  T.vaginalis_%inb_Rep2: 12.87%
[2]; [10]
  NFF_Activity: I (otherwise these were reported as inactive (I))

## CCCCCCCC(=O)N[C@H]1CCOC1=O [Octanoyl-L-homoserine lactone]
[1]; [11]
  T.vaginalis_%inb_Rep1: 16.84%
[1]; [12]
  T.vaginalis_%inb_Rep2: 14.05%
[2]; [13]
  NFF_Activity: I (otherwise these were reported as inactive (I))

## O=c1cc(O)c1=O [Moniliformin]
[1]; [11]
  T.vaginalis_%inb_Rep1: 8.57%
[1]; [12]
  T.vaginalis_%inb_Rep2: 12.25%
[2]; [13]
  NFF_Activity: I (otherwise these were reported as inactive (I))

## C[C@H]1CCN2C[C@]34C[C@@]5(C(=O)Nc6c5ccc5c6OC=CC(C)(C)O5)C(C)(C)[C@@H]3C[C@]12C(=O)N4C [Paraherquamide E]
[1]; [11]
  T.vaginalis_%inb_Rep1: 16.63%
[1]; [12]
  T.vaginalis_%inb_Rep2: 15.01%
[2]; [13]
  NFF_Activity: I (otherwise these were reported as inactive (I))

## CC[C@H](C)[C@H]1O[C@]2(C=C[C@@H]1C)C[C@@H]1C[C@@H](C/C=C(\C)[C@@H](O[C@H]3C[C@H](OC)[C@@H](O[C@H]4C[C@H](OC)[C@@H](O)[C@H](C)O4)[C@H](C)O3)[C@@H](C)/C=C/C=C3\CO[C@@H]4[C@H](O)C(C)=C[C@@H](C(=O)O1)[C@]34O)O2 [BIA-A1010]
[1]; [8]
  T.vaginalis_%inb_Rep1: 14.32%
[1]; [9]
  T.vaginalis_%inb_Rep2: 14.17%
[2]; [10]
  NFF_Activity: I (otherwise these were reported as inactive (I))

## CC(C)C[C@H](NC(=O)[C@@H](O)[C@H](N)Cc1ccccc1)C(=O)O [BIA-B1278]
[1]; [8]
  T.vaginalis_%inb_Rep1: 14.49%
[1]; [9]
  T.vaginalis_%inb_Rep2: 15.84%
[2]; [10]
  NFF_Activity: I (otherwise these were reported as inactive (I))

## CC[C@H]1OC(=O)[C@H](C)[C@@H](O[C@H]2C[C@@](C)(O)[C@@H](O)[C@H](C)O2)[C@H](C)[C@@H](O[C@@H]2O[C@H](C)C[C@H](N(C)C)[C@H]2O)[C@](C)(O)C[C@@H](C)C(=O)[C@H](C)[C@@H](O)[C@]1(C)O [Erythromycin C]
[1]; [14]
  T.vaginalis_%inb_Rep1: 5.17%
[1]; HTS, parasite screen at 1 µg/mL, replicate 1, raw absorbance
  T.vaginalis_Absorbance_Rep1: 0.805
[1]; [15]
  T.vaginalis_%inb_Rep2: 6.87%
[1]; HTS, parasite screen at 1 µg/mL, replicate 2, raw absorbance
  T.vaginalis_Absorbance_Rep2: 0.715
[2]; NFF_NS1 screen at 5 µg/mL
  NFF_Activity: I (otherwise these were reported as inactive (I))

## COC1=CC(C)=CC(C)C(O)C(C)CC(C)=CC=CC(OC)C(C(C)C(O)C(C)C2(O)CC(OC(=O)C=CC(=O)NC3=C(O)CCC3=O)C(C)C(C(C)C)O2)OC1=O (centres unmarked) [BIA-B1110]
[1]; [8]
  T.vaginalis_%inb_Rep1: 72.75%
[1]; [9]
  T.vaginalis_%inb_Rep2: 93.35%
[2]; [10]
  NFF_Activity: I (otherwise these were reported as inactive (I))

## CC1C=CC=CC=CC=CC=CC=CC=CC(OC2OC(C)C(O)C(N)C2O)CC2OC(O)(CC(O)CC(O)C(O)CCC(O)CC(O)CC(=O)OC(C)C(C)C1O)CC(O)C2C(=O)O (centres unmarked) [BIA-A1441]
[1]; [8]
  T.vaginalis_%inb_Rep1: 13.68%
[1]; [9]
  T.vaginalis_%inb_Rep2: 14.03%
[2]; [10]
  NFF_Activity: I (otherwise these were reported as inactive (I))

## CC1=CC2C(O)CCCC2C(C)(C(O)=C2C(=O)CNC2=O)C1CCC(C)C(O)/C(C)=C/CC(O)/C=C/C(C)C(O)/C=C/CC(O)/C=C/CC(O)CC1CCCN1C(=N)N (centres unmarked) [TPU-0037C]
[1]; [14]
  T.vaginalis_%inb_Rep1: 9.28%
[1]; [15]
  T.vaginalis_%inb_Rep2: 14.69%
[2]; NFF fibroblast screen at 5 µg/mL, A = active, I = inactive
  NFF_Activity: I (otherwise these were reported as inactive (I))
